From paper PMC9131871, “Impact of Micropolymorphism Outside the Peptide Binding Groove in the Clinically Relevant Allele HLA-C*14 on T Cell Responses in HIV-1 Infection” (Journal of Virology, 2022)

These sequences were tested on .221-C1402 / .221-C1403 cells pulsed with peptide (assay: ICS assay, peptide-specific bulk T cells against peptide-pulsed .221 cells). Details: IFN-γ ICS, 1 μM peptide (autologous allele) or 0.01 to 10 nM (cross-recognition), triplicate assays.
Assay type: cell-based, human
Protocol: To confirm the HLA-C*14-restriction of the T cell responses to the 6 NL4-3-derived peptides, we expanded T cells specific for these peptides by stimulating peripheral blood mononuclear cells (PBMCs) from responders with each peptide (HLA-C*14:02^+ responders for Gag AM9, Pol KM9, and Nef AL9 and HLA-C*14:03^+ responders for Gag LY9, Nef IF8, and Nef YT9). The cultured T cells were then tested for their ability to recognize the peptides presented on 721.221 cells expressing HLA-C*14:02 (.221-C1402 cells) or HLA-C*14:03 (.221-C1403 cells) and 721.221 cells by intracellular cytokine staining (ICS) assay. Both cell lines expressed similarly high levels of HLA-C*14, although the surface expression level of HLA-C*14 on the HLA-C*14:03-transfected line was higher than that on the HLA-C*14:02 line (the ratio of relative expression of HLA-C*14:03 to that of HLA-C*14:02 was approximately 1.3:1) (Fig. 4A). […] We further analyzed cross-recognition of .221-C1402 and .221-C1403 cells prepulsed with peptides at a range of different concentrations by T cells from HLA-C*14:02^+ and HLA-C*14:03^+ individuals.
FIG 4 HLA-C*14:02- and HLA-C*14:03-restricted T cell responses to 6 putative epitope peptides. (A) Histogram plots showing surface expression of HLA-C*14:02 or HLA-C*14:03 on .221-C14:02 or .221-C14:03 cells. The relative expression level of HLA-C*14:02 versus HLA-C*14:03 [(MFI of .221-C1402 stained with DT9 − MFI of .221-C1402 stained with the second antibody)/(MFI of .221-C1403 stained with DT9 − MFI of .221-C1403 stained with the second antibody)] is 1.3. (B and C) Gag LY9-, Gag AM9-, Pol KM9-, Nef YT9-, Nef IF8-, and Nef AL9-specific bulk T cell populations were expanded by stimulating responders’ PBMCs with each peptide. The ability of these peptide-specific bulk T cells to recognize peptide-pulsed .221 cells expressing HLA-C*14 molecules was then analyzed by ICS assay. (B) T cell recognition of .221 cells expressing the patient’s autologous HLA-C*14 allele and non-HLA-C*14-expressing cells pulsed with 1 μM peptide. (C) T cell recognition of HLA-C*14:02 or HLA-C*14:03-expressing cells pulsed with the indicated peptides at concentrations from 0.01 to 10 nM was analyzed by an ICS assay. The results are means and SDs from triplicate assays.
PBMCs from HIV-1-infected individuals were stimulated with 1 μM concentrations of the corresponding peptides and then cultured for 2 weeks in RPMI 1640 medium (Thermo Fisher) containing 10% FCS, 20 ng/mL of human recombinant interleukin 2 (rIL-2) (ProSpec), 1× minimal essential medium (MEM) nonessential amino acid solution (Gibco), and 1 mM sodium pyruvate solution (Gibco). Following T cell expansion, .221-C1402 cells or .221-C1403 cells prepulsed with each HIV-1 peptide or .221-C1402 cells or .221-C1403 cells infected with HIV-1 NL4-3 were added to a 96-well plate together with bulk-cultured T cells, and the cells were incubated for 4 h at 37°C with brefeldin A ([…]). The cells were then stained with Pacific blue (PB)-labeled anti-CD3 MAb (BioLegend), FITC-labeled anti-CD19 MAb (BioLegend), allophycocyanin (APC)-labeled anti-CD8 MAb (BioLegend), and a LIVE/DEAD fixable near-infrared (IR) dead-cell staining kit (Invitrogen) and subsequently fixed with 4% paraformaldehyde and incubated in permeabilization buffer (0.1% saponin–5% FBS–PBS). Thereafter, the cells were stained with phycoerythrin (PE)-labeled anti-IFN-γ MAb (BioLegend). Staining data were acquired on a FACSCanto II instrument (BD Biosciences) and analyzed using FlowJo 10.7.1 software.
With AFHHVAREL [Nef AL9] the “recognition of peptide-pulsed .221 cells by peptide-specific bulk T cells” value (shortened to “recognition of peptide-pulsed .221 cells”) was “recognized the epitope peptide-pulsed .221 cells expressing their autologous HLA-C*14 allele”.
In the case of AFSPEVIPM [Gag AM9], the “recognition of peptide-pulsed .221 cells” value is reported as “recognized the epitope peptide-pulsed .221 cells expressing their autologous HLA-C*14 allele”.
In the case of IYHTQGYF [Nef IF8], the “recognition of peptide-pulsed .221 cells” value is reported as “recognized the epitope peptide-pulsed .221 cells expressing their autologous HLA-C*14 allele”.
KYHSNWRAM [Pol KM9] was tested, and the “recognition of peptide-pulsed .221 cells” value was “recognized the epitope peptide-pulsed .221 cells expressing their autologous HLA-C*14 allele”.
In the case of LYNTIAVLY [Gag LY9], the “recognition of peptide-pulsed .221 cells” value is reported as “recognized the epitope peptide-pulsed .221 cells expressing their autologous HLA-C*14 allele”.
For YFPDWQNYT [Nef YT9], the “recognition of peptide-pulsed .221 cells” value was “recognized the epitope peptide-pulsed .221 cells expressing their autologous HLA-C*14 allele”.
